Results published in patent US5736394A, “Cellular uptake of modified peptides” (Boston Biomedical Research Institute, priority 1996, dated 1998).
Where no end group is shown, it is not given here. The star is where a group is joined. Benzoyl(4-benzoyl) = O=C(c1ccccc1)c1ccc(C(=O)*)cc1

Assays:
HL-60 cells = experiment: Cellular uptake of [3H]Bz-peptides / [3H]BBA by HL60 cells (silicone oil centrifugation, cell pellets counted)
Procedure: Initial experiments were designed to determine whether the Bz-modified peptide could cross cellular membranes. The methods employed for these studies are given briefly. First, 2×10^6 HL-60 cells/mL were incubated in serum free medium at 37° C. together with either [^3 H]-benzoylbenzoic acid ([^3 H]BBA) or the [^3 H]Bz-peptideover a 45 min time course. Aliquots (0.5 mL) of the cell suspension were removed at the times shown and separated from the aqueous medium by centrifugation through a silicone oil barrier. The cell pellets in the oil layer were counted.
The volume of an average HL60 cell can be estimated as 4.2×10^-6 μL. Thus, the pellet volume occupied by a […] suspension of 10^6 cells is […].

HL60 cells [1] = experiment: Inhibition of HL60 cell proliferation ([3H]TdR incorporation at 24 h) after photolysis of intracellular Bz-peptide at 365 nm; assay type: cell-based, human; settings: for inhibition of DNA synthesis / cytostatic response: irradiation immediately after plating, FIG. 2A
From the text: Experiments were designed to determine whether, after admission of the target-specific Bz-peptide molecules into proliferating cells, their photolysis in situ would induce a cytostatic response. Such a response would implicate the irreversible inhibition of ras-prenylating enzymes. […] It is important to note that, regardless of treatment, Trypan blue-assessed viability remained above 90% under the conditions employed for all experiments shown in FIG. 2A,B.
Two fundamental variations were performed. For FIG. 2A, cells were incubated in serum-free medium in the presence of a Bz-peptide, mevinolin, or, as control, with the DMSO delivery vehicle alone, for 15 min at room temp., after which fetal bovine serum was added to 10% (v/v) followed by plating in triplicate at 0.5 mL/well. These plates were immediately irradiated at 365 nm for 15 min to excite the intracellular Bz photophore, then placed in the incubator at 37° C. for 24 h. For FIG. 2B, the same procedure was followed except that, after serum replenishment and plating, cells were first incubated at 37° C. for 1 h, then removed from the incubator, irradiated for 15 min, and returned to incubation for 24 h. The 1 h incubation prior to irradiation was performed to assess, indirectly, the potential for intracellular destruction (or other means of depletion) of the Bz-peptides. At 24 h after serum replenishment, all cells were pulse-labeled with [^3 H]TdR to record the effect of intracellular Bz-peptide photolysis (as well as of mevinolin treatment, the effects of which have been well documented) on DNA synthesis and, thereby, on cell proliferation.

HL60 cells [2] = experiment: HL60 cell proliferation ([3H]TdR incorporation into DNA) after 18 h incubation, plus or minus irradiation; assay type: cell-based, human
Procedure: A set of experiments were designed to assess the effects of Bz-peptides on ras-mediated signaling of cell proliferation, under conditions where incubations of cells, post peptide addition, were shorter (18 h) than that found optimal for their population doubling (~24 h). Experiments were intended to reveal early differences in the relative stability of the Bz-peptides, as judged by their effects on inhibition of cell proliferation, plus or minus irradiation.
HL60 cells were exposed to Bz-ACVIM SEQ ID NO: 4 (FPTase-specific), Bz-ACVIL SEQ ID NO: 5 (GGPTase-I-specific), the benzophenone photophore (BBA), mevinolin (proliferation inhibition control), or the DMSO vehicle alone, plus or minus irradiation. After incubation for 18 h at 37° C., irradiated and non-irradiated cultures were assayed for [^3 H]TdR incorporation into DNA (a measure of proliferation).

[3] = 10 μM, 1 h delay at 37° C. before photolysis, 24 h, FIG. 2B

Bz-ACVIM: Bz-derivatized pentapeptide; benzophenone moiety amide-coupled to the N-terminus of ACVIM; FPTase-specific photoaffinity inhibitor ({Benzoyl(4-benzoyl)}-ACVIM)
influx and equilibration into cells (HL-60 cells): extremely rapid | time to reach maximum levels of influx and equilibration (HL-60 cells): ≤ 15 min | inhibitory effect (HL60 cells [1]; [3]): much lower inhibitory effect | inhibition of DNA synthesis (HL60 cells [1]; 10 μM, 24 h): 75-80% | cytostatic effect (HL60 cells [1]; 100 μM, 1 h delay at 37° C. before photolysis, 24 h, FIG. 2B): remained at least as powerful as in FIG. 2A | inhibition of DNA synthesis (HL60 cells [1]; 100 μM, 24 h): 75-80%

Bz-ACVIL: Bz-derivatized pentapeptide ACVIL; GGPTase-I-specific photoaffinity inhibitor ({Benzoyl(4-benzoyl)}-ACVIL)
influx and equilibration into cells (HL-60 cells): behaved similarly | inhibitory effect (HL60 cells [1]; [3]): ineffective | cytostatic response (HL60 cells [1]; 10 μM, 24 h): did not do so | loss of the inhibitory capacity manifest in FIG. 2A (HL60 cells [1]; 100 μM, 1 h delay before photolysis, FIG. 2B relative to FIG. 2A): about 60% | cytostatic response (HL60 cells [1]; 100 μM, 24 h): clear cytostatic response

mevinolin [reference compound]
growth inhibition (HL60 cells [1]; 10 μM, FIGS. 2A & 2B, whether irradiation was delayed for 1 h or not): apparent | relative extent of inhibition of cell proliferation (HL60 cells [2]; whether or not cells were irradiated, 2nd bar both panels): ~ 50%

APRTPGGRR
intracellular accumulation (HL-60 cells; 48 μM, HL60 cells, lowest trace in FIG. 1B): no evidence for intracellular accumulation

O=C(O)c1ccc(C(=O)c2ccccc2)cc1 [BBA, 4-benzoylbenzoic acid]
effect on the cell's capacity for proliferation (HL60 cells [2]; whether cells were irradiated or not, 6th bar both panels): no effect
